Data as given in PMC7957578, “N-(1,3,4-Oxadiazol-2-yl)Benzamides as Antibacterial Agents against Neisseria gonorrhoeae” (International Journal of Molecular Sciences, 2021).
≈ marks a conversion by molar mass, not a printed value. Like-named read-outs stand apart in the source and are kept apart here.

Legend:
[1] = test system: Caco-2 bilayers; assay: Caco-2 bidirectional permeability assay; type: in vitro ADME, human; conditions: Caco-2 permeability classification
Description: Oral bioavailability is a highly important consideration when developing bioactive molecules as therapeutic agents. A critical factor of oral bioavailability is human intestinal absorption. The Caco-2 bidirectional permeability assay is the most widely used in vitro model for predicting if a bioactive molecule can have adequate systemic absorption. Thus, we selected HSGN-238 to act as a model to analyze the drug-like properties of newly synthesized N-(1,3,4-oxadiazol-2-yl)benzamides.
Assay and data analysis were performed by Eurofins Panlabs (MO, USA) according to a previously reported protocol. The apparent permeability coefficient (Papp) of the tested agents was calculated using the equation below: Papp(cm/s)=VR∗CR,end/Δt∗1/A∗(CD,mid−CR,mid), where VR is the volume of the receiver chamber. CR,end is the concentration of the test compound in the receiver chamber at the end time point, Δt is the incubation time, and A is the surface area of the cell monolayer. CD,mid is the calculated mid-point concentration of the test compound in the donor side, which is the mean value of the donor concentration at 0 minutes and the donor concentration at the end time point. CR,mid is the mid-point concentration of the test compound in the receiver side, which is one half of the receiver concentration at the end time point. Concentrations of the test compound were expressed as peak areas of the test compound.

[2] = test system: E. coli JW55031 (TolC Mutant); assay: MIC/MBC (CLSI broth microdilution) against E. coli TolC mutant; type: cell-based; conditions: Escherichia coli
Description: (§1) The minimum inhibitory concentrations (MICs) of the tested compounds and control drugs, linezolid, vancomycin, and gentamicin, were determined using the broth microdilution method according to the guidelines outlined by the Clinical and Laboratory Standards Institute (CLSI) against clinically relevant bacterial (Staphylococcus aureus, MRSA, Escherichia coli, Enterococcus faecalis and Enterococcus faecium strains. S. aureus, MRSA, E. coli, Enterococcus faecalis and Enterococcus faecium were grown aerobically overnight on tryptone soy agar (TSA) plates at 37° C. Afterwards, a bacterial solution equivalent to 0.5 McFarland standard was prepared and diluted in cation-adjusted Mueller–Hinton broth (CAMHB) (for S. aureus, MRSA, and E. coli) to achieve a bacterial concentration of about 5 × 10^5 CFU/mL. Enterococcus faecalis and Enterococcus faecium 0.5 McFarland standard solution was diluted in tryptone soy broth (TSB) to achieve a bacterial concentration of about 5 × 10^5 CFU/mL. Compounds and control drugs were added in the first row of 96-well plates and serially diluted with the corresponding media containing bacteria. Plates were then incubated as previously described. […] The minimum bactericidal concentration (MBC) was tested by spotting 4 µL from wells with no growth onto TSA plates. Plates were incubated at 37 ° C for at least 18 h before recording the MBC. The MBC was categorized as the lowest concentration that reduced bacterial growth by 99.9% [45, 46, 47].

[3] = test system: N. gonorrhoeae 194; assay: MIC/MBC against N. gonorrhoeae clinical isolate 194; type: cell-based; conditions: Neisseria gonorrhoeae
Description: (§2) Briefly, bacteria were grown overnight on chocolate agar II at 37° C in the presence of 5% CO2. Afterwards, a bacterial suspension equivalent to 1.0 McFarland standard was prepared and diluted in brucella broth supplemented with yeast extract, neopeptone, hematin, pyridoxal, and NAD. Test agents were added in the first row of the 96-well plates and serially diluted along the plates. Plates were then incubated at 37° C in the presence of 5% CO2 for 24 h. […] Plates were then incubated at 37 ° C in the presence of 5% CO2 for 24 h. The MBC was categorized as the lowest concentration that reduced bacterial growth by 99.9% [45, 46, 47].

[4] = test system: human colorectal cells (Caco-2); assay: In vitro cytotoxicity, MTS assay; type: cell-based
Description: HSGN-237 and -238 were assayed for potential cytotoxicity against a human colorectal adenocarcinoma (Caco-2) cell line, as described previously. Briefly, tested compounds were incubated with caco-2 cells for 24 and 48 h. Then, the cells were incubated with MTS (3-(4,5-dimethylthiazol-2-yl)-5-(3-carboxymethoxyphenyl)-2-(4-sulfophenyl)-2H-tetrazolium) reagent for 4 h before measuring the absorbance values (OD490).
Figure 2 In vitro cytotoxicity assessment of HSGN-237 and -238 (tested in triplicate) against human colorectal cells (Caco-2) after (A) 24 h, and (B) 48 h, using the 3-(4,5-dimethylthiazol-2-yl)-5-(3-carboxymethoxyphenyl)-2-(4-sulfophenyl)-2H-tetrazolium (MTS) assay. Results are presented as percent viable cells relative to DMSO (negative control). Error bars represent standard deviation values. A two-way ANOVA, with post hoc Dunnet’s multiple comparisons test, determined the statistical difference between the values obtained for the compound and DMSO. Asterisks denote statistically significant differences between treatments of cells with either HSGN-237 or -238 as compared to DMSO-treated cells. The experiment was repeated 3 independent times.

[5] = test system: VRE. faecium ATCC 700221; assay: MIC/MBC (CLSI broth microdilution) against VRE faecium ATCC 700221; type: cell-based; conditions: Enterococcus, VRE faecium ATCC 700221
Description: as §1

[6] = test system: L. monocytogenes ATCC 19115; assay: MIC/MBC (CLSI broth microdilution) against L. monocytogenes ATCC 19115; type: cell-based; conditions: Listeria monocytogenes, ATCC19115, L. monocytogenes ATCC 19115
[7] = test system: E. coli BW25113 (wild-type strain); assay: MIC/MBC (CLSI broth microdilution) against E. coli BW25113 wild type; type: cell-based, Escherichia coli; conditions: E. coli BW25113 wild-type strain
Description: as §1

[8] = test system: tested bacterial strains (Table 3); assay: MBC versus MIC against the panel of Gram-positive and Gram-negative pathogens; type: cell-based; conditions: MBCs more than three-fold higher than MICs, strains of Table 3
Description: While the focus of these new N-(1,3,4-oxadiazol-2-yl)benzamides is towards N. gonorrhoeae, we proceeded to test their activity against other Gram-positive and Gram-negative pathogens. Intriguingly, HSGN-235, HSGN-237, and HSGN-238 had potent activity against the tested Gram-positive bacterial pathogens. For instance, all three compounds had potent activity against the staphylococcal strains, with MICs ranging from 0.25 to 1 µg/mL (Table 3). Furthermore, HSGN-235, HSGN-237, and HSGN-238 maintained potent activity against clinically relevant Gram-positive bacterial pathogens such as vancomycin-resistant enterococci (VRE) and Listeria monocytogenes (Table 3). Additionally, we moved to test if HSGN-235, HSGN-237, and HSGN-238 were active against other Gram-negative bacterial pathogens. […] This lack of activity against Gram-negative bacteria appears to be due to HSGN-235, HSGN-237, and HSGN-238 being a substrate for efflux.
The minimum inhibitory concentrations (MICs) of the tested compounds and control drugs, linezolid, vancomycin, and gentamicin, were determined using the broth microdilution method according to the guidelines outlined by the Clinical and Laboratory Standards Institute (CLSI) against clinically relevant bacterial (Staphylococcus aureus, MRSA, Escherichia coli, Enterococcus faecalis and Enterococcus faecium strains. S. aureus, MRSA, E. coli, Enterococcus faecalis and Enterococcus faecium were grown aerobically overnight on tryptone soy agar (TSA) plates at 37° C. Afterwards, a bacterial solution equivalent to 0.5 McFarland standard was prepared and diluted in cation-adjusted Mueller–Hinton broth (CAMHB) (for S. aureus, MRSA, and E. coli) to achieve a bacterial concentration of about 5 × 10^5 CFU/mL. Enterococcus faecalis and Enterococcus faecium 0.5 McFarland standard solution was diluted in tryptone soy broth (TSB) to achieve a bacterial concentration of about 5 × 10^5 CFU/mL. Compounds and control drugs were added in the first row of 96-well plates and serially diluted with the corresponding media containing bacteria. […]

[9] = test system: N. gonorrhoeae WHO L; assay: MIC/MBC against N. gonorrhoeae WHO L reference strain; type: cell-based; conditions: Neisseria gonorrhoeae
Description: as §2

[10] = test system: MRSA USA300; assay: MIC/MBC (CLSI broth microdilution) against MRSA USA300; type: cell-based, methicillin-resistant Staphylococcus aureus; conditions: Staphylococcus aureus, MRSA USA300
Description: as §1

[11] = test system: N. gonorrhoeae strain 181; assay: MIC by broth microdilution against N. gonorrhoeae strain 181; type: cell-based, Neisseria gonorrhoeae; conditions: Neisseria gonorrhoeae; N. gonorrhoeae strain 181; read-out: MIC
Description: as §2

[12] = test system: N. gonorrhoeae 197; assay: MIC/MBC against N. gonorrhoeae clinical isolate 197; type: cell-based; conditions: Neisseria gonorrhoeae
Description: as §2

[13] = test system: panel drug-resistant pathogenic N. gonorrhoeae strains; assay: MIC/MBC against a panel of drug-resistant N. gonorrhoeae strains; type: cell-based, Neisseria gonorrhoeae; conditions: MBC the same as or one-fold higher than MIC
[14] = test system: S. aureus ATCC 25923; assay: MIC/MBC (CLSI broth microdilution) against S. aureus ATCC 25923; type: cell-based; conditions: Staphylococcus aureus, ATCC25923, S. aureus ATCC 25923
Description: as §1

[15] = test system: N. gonorrhoeae; assay: MIC against N. gonorrhoeae in presence of fetal bovine serum; type: cell-based; conditions: Neisseria gonorrhoeae, 24 h
[16] = test system: N. gonorrhoeae 165; assay: MIC/MBC against N. gonorrhoeae clinical isolate 165; type: cell-based; conditions: Neisseria gonorrhoeae
Description: as §2

[17] = test system: VRE. faecalisATCC 51575; assay: MIC/MBC (CLSI broth microdilution) against VRE faecalis ATCC 51575; type: cell-based; conditions: Enterococcus, VRE faecalis ATCC 51575
Description: as §1

[18] = test system: N. gonorrhoeae 166; assay: MIC/MBC against N. gonorrhoeae clinical isolate 166; type: cell-based; conditions: Neisseria gonorrhoeae
Description: as §2

[19] = test system: VRE. faecalis ATCC 51299; assay: MIC/MBC (CLSI broth microdilution) against VRE faecalis ATCC 51299; type: cell-based; conditions: Enterococcus, VRE faecalis ATCC 51299
Description: as §1

[20] = test system: E. faecalis ATCC 29212; assay: MIC/MBC (CLSI broth microdilution) against E. faecalis ATCC 29212; type: cell-based; conditions: Enterococcus faecalis, ATCC29212, E. faecalis ATCC 29212
Description: as §1

[21] = test system: N. gonorrhoeae 200; assay: MIC/MBC against N. gonorrhoeae clinical isolate 200; type: cell-based; conditions: Neisseria gonorrhoeae
Description: as §2

`CNC(=C[N+](=O)[O-])NCCSCc1ccc(CN(C)C)o1` [Ranitidine] was tested, and the “Notes (permeability class)” value [1] was “Low Permeability Control”.

`O=C(Nc1nnc(-c2cccc(F)c2)o1)c1ccc(OC(F)(F)F)cc1` [HSGN-237, N-(5-(3-Fluorophenyl)-1,3,4-oxadiazol-2-yl)-4-(trifluoromethoxy)benzamide] showed an MBC [2] of 16 µg/mL (≈ 43.6 µM), an MIC [2] of 0.25 µg/mL (≈ 0.681 µM) and an MBC [3] of 0.06 µg/mL (≈ 0.163 µM). For the same compound, the MIC [3] was 0.03 µg/mL (≈ 0.0817 µM), the non-toxic concentration ([4]; Caco-2 cells, 24 and 48 h, MTS assay) was “higher than 64 µg/mL” and the “non-toxic concentration relative to MIC against N. gonorrhoeae” value ([4]; Caco-2 non-toxic concentration versus corresponding MIC) was 512 times. It also gave an MBC ([5]; read-out: MBC) of 8 µg/mL (≈ 21.8 µM), an MIC ([5]; read-out: MIC) of 0.5 µg/mL (≈ 1.36 µM) and an MBC ([6]; read-out: MBC) of 64 µg/mL (≈ 174 µM). The MIC ([6]; read-out: MIC) was 0.5 µg/mL (≈ 1.36 µM), the MIC [7] was >8 µg/mL and the MBC ([7]; Escherichia coli, read-out: MBC) was > 8 µg/mL. For the same compound, the MIC ([7]; Escherichia coli, read-out: MIC) was > 8 µg/mL, the “type of activity from MBC versus MIC” value [8] was “bacteriostatic agents” and the MBC [9] was 0.06 µg/mL (≈ 0.163 µM). The MIC [9] was 0.06 µg/mL (≈ 0.163 µM), the MBC ([10]; read-out: MBC) was 32 µg/mL (≈ 87.1 µM) and the MIC ([10]; read-out: MIC) was 0.25 µg/mL (≈ 0.681 µM). For the same compound, the MIC [11] was 0.125 µg/mL (≈ 0.34 µM), the MBC [12] was 0.06 µg/mL (≈ 0.163 µM) and the MIC [12] was 0.03 µg/mL (≈ 0.0817 µM). The “type of activity from MBC versus MIC” value [13] was “bactericidal activity”, the MBC ([14]; read-out: MBC) was > 64 µg/mL and the MIC ([14]; read-out: MIC) was 0.25 µg/mL (≈ 0.681 µM). It also gave an MIC ([15]; 1% FBS added to the media) of 0.125 µg/mL, an MIC ([15]; 5% FBS added to the media) of 1 µg/mL and an MIC ([15]; 10% FBS added to the media) of 4 µg/mL. The MBC [16] was 0.125 µg/mL (≈ 0.34 µM), the MIC [16] was 0.06 µg/mL (≈ 0.163 µM) and the MBC ([17]; read-out: MBC) was > 64 µg/mL. It also gave an MIC ([17]; read-out: MIC) of 1 µg/mL (≈ 2.72 µM), an MBC [18] of 0.06 µg/mL (≈ 0.163 µM) and an MIC [18] of 0.06 µg/mL (≈ 0.163 µM). The MBC ([19]; read-out: MBC) was 16 µg/mL (≈ 43.6 µM), the MIC ([19]; read-out: MIC) was 0.5 µg/mL (≈ 1.36 µM) and the MBC ([20]; read-out: MBC) was > 64 µg/mL. For the same compound, the MIC ([20]; read-out: MIC) was 1 µg/mL (≈ 2.72 µM), the MBC [21] was 0.06 µg/mL (≈ 0.163 µM) and the MIC [21] was 0.06 µg/mL (≈ 0.163 µM).
